The source of these data is US12156886B2, “Methods of increasing blood oxygen saturation” (ThermoLife International, LLC, priority 2020, dated 2024).

Data set [1] has as its system NO-induced methemoglobinemia. Kind of data set: NO-induced methemoglobinemia and lung inflammation after accidental NO exposure, H2 inhalation and magnesium ingestion (Example 12). The format is in vivo, human. From the text:
During the course of developing the described methods for producing NO for a more affordable, effective, and safe source of NO therapy, one of the inventors accidentally exposed themself both chronically and acutely to NO gas. […] Since onset of symptoms, the inventor inhaled H2 gas, produced by reacting elemental magnesium and citric acid in a glass of water.
Their condition and SpO2 worsened throughout the day, and later that night they were admitted in the emergency room at a hospital with a recorded SpO2 of 45%. The hospital verified that the inventor developed NO-induced lung inflammation by X-rays and a CAT scan. Upon the diagnosis, blood samples were taken from the inventor to measure methemoglobin levels. […] A normal methemoglobin fraction is about 1%. […] Accordingly, no methemoglobin treatment (e.g., intravenous administration of methylene blue) was administered to the inventor.

The conditions of data set [2]: cited from earlier work.
The nature of data set [3]: Inventor exposed to NO levels higher than 25 ppm during development, SpO2 oximeter. The format is in vivo, human. An excerpt: In fact, the inventor's oxygenation levels as measured by SpO2 oximeter were always in the 97-100 range. Accordingly, also disclosed herein are methods of preventing the onset of methemoglobinemia from nitrate, nitrite, or NO exposure, wherein the method comprising administering hydrogen to the subject exposed to a source of nitrate, a source of nitrite, or NO.

For data set [4] the following is noted: cited from earlier work. This is another data set of the same source.
The conditions of data set [5]: cited from earlier work. This is another data set of the same source.
Data set [6] relates to subject with respiratory illness.

Structures are written as SMILES.

Regarding `[HH]` [H2 gas, hydrogen], the “increase in relative humidity” value (for every about 40 ppm increase in H2 concentration, 30 C) amounted to 1%. Further, the “H2 concentration shown safe (no symptoms of water in the lungs)” value (sensor limit 1000 ppm) came out at 1000 ppm. Also, the “methemoglobin in blood samples” value in data set [1] (at SpO2 of 45%, after H2 inhalation and 2000 mg elemental magnesium powder) was “no methemoglobin was detected”. Besides, the “minor methemoglobinemia caused by inhalation of NO gas” value in data set [1] (other experiments, SpO2 returning to normal) is reported as “reversed”.
For `[O]N=O` [NO2, nitrogen dioxide], the “permissible exposure limit in homes and offices” value in data set [2] (OSHA, 9 mg/m^3) is at most 5 ppm. In addition, in data set [2] (OSHA), the “concentration that can trigger symptoms in asthmatic people” value is 2 ppm and the “concentration that starts to damage the lungs” value is listed as 5 ppm. The “levels shown to cause respiratory discomfort in vulnerable populations” value in data set [2] (asthmatics) is at least 0.1 ppm. For the same compound, the “concentration that can kill a human” value in data set [2] (exposed for about an hour) is on record as 100 ppm.
For `[N]=O` [NO, nitric oxide], the ill effects entry in data set [3] (NO levels higher than 25 ppm) is “no ill effects”. Further, in data set [3] (exposed multiple times to NO levels higher than 25 ppm), the “oxygenation levels by SpO2 oximeter” value is given as 97-100. Moreover, the outright toxic concentration in data set [2] (in vivo) is listed as at least 100 ppm. The “SpO2 one day after exposure to high ambient NO” value in data set [1] (ambient NO >80 ppm) is reported as 85%. Further, the “SpO2 recorded in the emergency room later that night” value in data set [1] (ambient NO >80 ppm, after prolonged H2 inhalation) was found to be 45%.
For the compound `O=NO` [Sodium nitrite], the methemoglobin level in data set [4] (600 mg to an adult for cyanide toxicity, van Heijst et al.) was 58%. For the same compound, in data set [4] (Katabami et al.), the “lowest calculated lethal dose” value is 2.6 grams. For the same compound, in data set [4] (in vivo), the “dose in a reported case of severe methemoglobinemia” value is “about 70 mg”.
On to `O=[N+]([O-])O` [nitrate alone], for which the oxygen saturation entry in data set [5] (409 mg and 479 mg doses, Rosetti et al., Barlow et al.) is on record as “failed to produce any increase in oxygen saturation”.
For `O=[N+]([O-])[O-].[K+]` [potassium nitrate], the “other symptoms (weakness, coughing)” value in data set [6] (human, in vivo) is given as “no attenuation of their other symptoms”. In data set [6] (person), the “SpO2 for up to 4 hours after administration” value was “showed no signs of increase”. Also, the “SpO2 15 minutes after administration” value in data set [6] (person, baseline 93%) is recorded as 93%. Besides, the “lower blood oxygen saturation versus the placebo” value in data set [5] (hypoxic conditions, Schiffer et al.) is on record as “about 3%”.
For the compound `O=[N+]([O-])[O-].[Na+]` [sodium nitrate], the “oxygen consumption during exercise” value in data set [5] (Larsen et al., Bailey et al.) was “reduce oxygen consumption during exercise”.
